Experiment in all cases: NCI-60 cell line screen, 48 h
Assay [1] has as its system SN12C renal.
Assay [2] concerns OVCAR-3 ovarian.
Assay [3] has as its system SK-OV-3 ovarian.
Assay [4] deals with NCI-H460 lung.
The subject of assay [5] is A549 NSCLC.
For assay [6], the system named is UO-31 renal.
The test system of assay [7] is SNB-75 CNS.
The test system of assay [8] is HCT-15 colon.

Molecules are shown by their SMILES.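 Briefly, cells in 96-well plates were exposed to five compound concentrations for 48 h, and endpoints were estimated by linear interpolation. GI50 marks 50% less growth. TGI marks complete inhibition of growth.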

For the compound `Cc1cc(C)c([O-])c(-[n+]2c(-c3ccccc3)cc(-c3ccccc3)cc2-c2ccccc2)c1`, the TGI in assay [1] is 18.5 µM; in assay [2], 12 µM; in assay [3] it was 27.2 µM; in assay [4] it was 15.8 µM; in assay [5], 28 µM; in assay [6], 33.7 µM. Besides, the results for the TGI in assay [7] and in assay [8] were 17.5 µM and 25.4 µM, respectively.
Consider `CC(=O)NNc1nc(C)c(C(=O)/C=C/c2ccc(N(C)C)cc2)s1`, for which the TGI in assay [1], in assay [2], in assay [3], in assay [4], in assay [5] and in assay [6] was over 100 µM throughout. Further, the TGI in assay [7] and in assay [8] was over 100 µM each time.
Take `O=C1CC[C@@H](S(=O)(=O)c2ccccc2)[C@H](/C=C/c2ccccc2)O1`: the TGI in assay [1], in assay [2], in assay [3], in assay [4], in assay [5] and in assay [6] was over 100 µM in each case. The TGI in assay [7] and in assay [8] was over 100 µM each time.
`CCP(C)(=O)CC`: the TGI in assay [1], in assay [2], in assay [3], in assay [4], in assay [5] and in assay [6] was over 100 µM throughout. Besides, the TGI in assay [7] and in assay [8] was over 100 µM each time.
With `CC(=O)[CH-]C(=O)c1ccccc1.CC(=O)[CH-]C(=O)c1ccccc1.CC(=O)[CH-]C(=O)c1ccccc1.[Cl-].[Hf+4]`, the GI50 in assay [1] is 28.8 µM; in assay [2], 13.6 µM; in assay [3], 46.1 µM; in assay [4], 38.5 µM; in assay [5], 46.4 µM; in assay [7], 22.2 µM. Also, the GI50 in assay [8] is 23.9 µM. Moreover, the TGI in assay [1] is over 100 µM; in assay [2], over 100 µM; in assay [3], over 100 µM; in assay [4] it was over 100 µM; in assay [5] it was over 100 µM; in assay [7] it was 70.4 µM. In addition, the TGI in assay [8] was over 100 µM.
In the case of `NC(N)=NCCCC(Nc1c2ccccc2nc2ccccc12)C(=O)O` (stereo not given), the TGI in assay [1], in assay [2], in assay [4], in assay [5], in assay [7] and in assay [8] was over 100 µM throughout.
Turning to `COc1ccc(C(=O)C(c2ccc(OC)cc2)C2(O)C(=O)Nc3c(Cl)cc(Cl)cc32)cc1` (stereo not given), the TGI in assay [1] worked out at 35.6 µM; in assay [2], 49.9 µM; in assay [3], 90.6 µM; in assay [4], 49.9 µM; in assay [5] it was 54.9 µM; in assay [6], 62.2 µM. Besides, the results for the TGI in assay [7] and in assay [8] were 58.6 µM and 49.8 µM, respectively.
In the case of `C=C1C2CCCC1C1(S(C)(=O)=O)CCCCC21O` (stereo not given), the TGI in assay [1], in assay [2], in assay [3], in assay [4], in assay [5] and in assay [6] was over 100 µM throughout. The TGI in assay [7] and in assay [8] was over 100 µM throughout.
Turning to `Cc1c(C(=O)/C=C/c2ccc([N+](=O)[O-])cc2)[n+](=O)c2ccccc2n1[O-]`, the TGI in assay [1], in assay [2], in assay [3], in assay [4], in assay [5] and in assay [6] was over 100 µM throughout. In addition, in assay [7], the TGI was over 100 µM.
Consider `CS(=O)(=O)ON1C(=O)c2ccc(N)cc2C1=O`, for which the TGI in assay [1], in assay [2], in assay [3], in assay [4], in assay [5] and in assay [6] was over 100 µM each time. For the same compound, the TGI in assay [7] and in assay [8] was over 100 µM each time.
Regarding `COC1(OC)CCC2(C)OC(c3ccccc3)C1O2` (stereo not given), the TGI in assay [1], in assay [2], in assay [3], in assay [4], in assay [5] and in assay [6] was over 100 µM each time. Further, the TGI in assay [7] and in assay [8] was over 100 µM in each case.
Consider `O=C(CC(=O)N1N=C(n2ccc3ccccc32)CC1c1ccccc1)Nc1ccccc1Cl` (stereo not given), for which the TGI in assay [1], in assay [2], in assay [3], in assay [4], in assay [5] and in assay [6] was over 100 µM each time. Besides, the TGI in assay [7] and in assay [8] was over 100 µM in each case.
Take `CC(=O)[CH-]C(=O)c1ccccc1.CC(=O)[CH-]C(=O)c1ccccc1.CC[C@H](CCC(C)[C@H]1CCC2[C@@H]3CC=C4C[C@@H]([O-])CC[C@]4(C)C3CC[C@@]21C)C(C)C.CC[C@H](CCC(C)[C@H]1CCC2[C@@H]3CC=C4C[C@@H]([O-])CC[C@]4(C)C3CC[C@@]21C)C(C)C.Cl.[Ti+4]` (stereo not given in full): the TGI in assay [1], in assay [2], in assay [3], in assay [4], in assay [5] and in assay [6] was over 25 µM throughout. Further, the TGI in assay [7] and in assay [8] was over 25 µM each time. In addition, in assay [3], the GI50 was over 25 µM.
Take `CC(C)(C)c1cc(Cc2ccc(S(C)(=O)=O)cc2)c(O)c(C(C)(C)C)c1`: the TGI in assay [1] is 28.6 µM; in assay [3], 36.2 µM; in assay [4], 30.5 µM; in assay [5] it was 24.2 µM; in assay [6], 29.6 µM; in assay [7], 28 µM. This compound also displayed a TGI in assay [8] of 31 µM.
Regarding `CN(C)CC1CCCC/C1=N\OC(=O)c1ccccc1` (stereo not given), the TGI in assay [1], in assay [2], in assay [3], in assay [4], in assay [5] and in assay [6] was over 100 µM throughout. For the same compound, the TGI in assay [7] and in assay [8] was over 100 µM throughout.
With `Cc1[nH]c2ccccc2c1/C=C/c1c(C)[nH]c2ccccc12`, the TGI in assay [2], in assay [3], in assay [4], in assay [5], in assay [6] and in assay [7] was over 100 µM each time. The compound further had a TGI in assay [8] of over 100 µM.
In the case of `[pH]1p2[pH]p3p1p3[pH]2.c1cc[c]([Ge]([c]2ccccc2)[c]2ccccc2)cc1.c1cc[c]([Ge]([c]2ccccc2)[c]2ccccc2)cc1.c1cc[c]([Ge]([c]2ccccc2)[c]2ccccc2)cc1`, the GI50 in assay [1] was 15.1 µM; in assay [2], 10.9 µM; in assay [3], 15.4 µM; in assay [4] it was 6.95 µM; in assay [5], 25.4 µM; in assay [6] it was 16.3 µM. For the same compound, the GI50 in assay [7] was 10.1 µM. Further, the TGI in assay [1] was 29.7 µM; in assay [2], 23.4 µM; in assay [3], 33.8 µM; in assay [4], 27.5 µM; in assay [5], over 100 µM; in assay [6], 29.8 µM. Moreover, the TGI in assay [7] came out at 32.4 µM.
On to `NC(=S)N/N=C/C(O[C@@H](/C=N/NC(N)=S)CO)n1cnc2c(N)ncnc21` (stereo not given in full), for which the TGI is over 100 µM in assay [1]; over 94.5 µM in assay [2]; over 100 µM in assay [3]; over 100 µM in assay [4]; over 100 µM in assay [5]; over 100 µM in assay [6]. Besides, the TGI in assay [7] is over 100 µM; in assay [8], over 62 µM.
In the case of `CCOC(=O)C1(C)C2=CC=C(O2)C(C)(C)C2=CC=C(O2)C(C)(C)C2=CC=C(O2)C(C)(C)C2=CC=C1O2`, the TGI in assay [1], in assay [3], in assay [4], in assay [5] and in assay [8] was over 100 µM throughout.
In the case of `COc1c(CC(C)=O)c2ccccc2n1C(C)=O`, the TGI in assay [1], in assay [2], in assay [3], in assay [4], in assay [5] and in assay [6] was over 100 µM in each case. Moreover, the TGI in assay [7] and in assay [8] was over 100 µM in each case.
For `Cc1cc(NS(=O)(=O)c2ccc(NC(=O)c3cccc4c(Nc5ccc(S(=O)(=O)Nc6cc(C)on6)cc5)c5ccc(Cl)cc5nc34)cc2)no1`, the TGI in assay [1] was over 100 µM; in assay [2], over 100 µM; in assay [3], over 100 µM; in assay [4] it was over 100 µM; in assay [5], over 100 µM; in assay [6], 86.3 µM. The TGI in assay [7] is 65.2 µM; in assay [8] it was over 100 µM.
In the case of `Oc1ccc(I)c2cccnc12`, the TGI in assay [1] was over 100 µM; in assay [2], over 100 µM; in assay [3] it was 49.5 µM; in assay [4] it was 20.2 µM; in assay [5] it was over 100 µM; in assay [6] it was 32.5 µM. In assay [8], this compound returned a TGI of over 100 µM.

For the origin of these results see PubChem BioAssay (NCI).
